# Experimental data taken from patent US20190330224A1, “ACC INHIBITORS AND USES THEREOF” (Gilead Apollo, LLC, priority 2015, published 2019).
# Assays:
# C. albicans ATCC 90028 = experiment: Anti-Fungal Activity Assay (broth microtiter MIC), C. albicans; assay type: cell-based, Candida albicans; conditions: Candida albicans, ATCC90028, 48 h, 3 replicates; MIC recorded at 48 h; read-out: MIC C. albicans ATCC 90028
# In short: (§1)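 Candida strains were grown from frozen stock on Sabouraud dextrose agar overnight at 35° C, then suspended directly in RPMI 1640+MOPS and quantified against standard curves. Broth microdilution MIC plates followed CLSI M27-A3; MICs were read visually against growth control at 48 h, with a 24 h read added for soraphen.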
# C. krusei ATCC 6258 = experiment: Anti-Fungal Activity Assay (broth microtiter MIC), C. krusei; assay type: cell-based, Candida krusei; conditions: Pichia kudriavzevii, ATCC6258, 48 h, 3 replicates; MIC recorded at 48 h; read-out: MIC C. krusei ATCC 6258
# In short: as §1
# Rhizoctonia solani (Rs) = experiment: Growth inhibition assay of fungal pathogens, Rs; assay type: cell-based; conditions: 48 hours, read-out: Concentration at 90% Inhibition, Rs
# Protocol: (§2) Compounds of the present invention were evaluated in a growth inhibition assay to determine the ability to control the growth of fungal pathogens, such as Botrtyis cinerea (Bc). Collectotrichum graminicola (Cg), Diplodia maydis (Dm), Fusarium moniliforme (Fm), Fusarium virguliforme (Fv), Phytophthora capsici (Pc), Rhizoctonia solani (Rs), and Septoria tritici (St). Compounds to be tested were dissolved in DMSO at 2.5 mg/ml to produce compound stock solutions (“stocks”). Stocks were diluted with DMSO by a five-fold dilution in a 96-well stock plate, and two sets of final concentrations of 50, 10, and 2 ppm or 2, 0.4, and 0.08 ppm were obtained in vitro. A set of positive controls was also prepared, with various concentrations of Soraphen (2, 0.4, and 0.08 ppm), Metalaxyl (1.1, 0.22, and 0.04 ppm), and Metconazole (2, 0.4, and 0.08 ppm or 0.2, 0.04, and 0.008 ppm) after the five-fold dilutions. Negative controls on each plate included 2% DMSO, water, and a blank (media+2% DMSO). Fungal spores were isolated from previously sub-cultured plates of Botrtyis cinerea (Bc), Collectotrichum graminicola (Cg), Diplodia maydis (Dm), Fusarium moniliforme (Fm), Fusarium virguliforme (Fv), Phytophthora capsici (Pc), and Septoria tritici (St). The isolated spores were diluted to individual concentrations with a 17% V8 liquid media. For Rhizoctonia solani (Rs) and Pythium irregulare, 1.5 mm mycelial plugs were used in place of spores and ¼ Potato Dextrose Broth (PDB) was used for dilution. The spore concentrations and plug sizes were based on growth curves generated at 48 hours for each pathogen. In a second 96-well plate, the spores or mycelial plugs, media, diluted compound solutions, and controls were combined. Once the compound was added, a true final concentration of compound in each well was measured by an OD600 reading, which adjusted for any compound precipitation that might have occurred in the well. Plate readings were repeated at both 24 and 48 hours. The blank negative control was used as a background subtraction. Additional visual ratings were performed at both 24 and 48 hours for checking on precipitation and confirming efficacy. Visual and OD600 ratings of the compounds at 48 hours were compared to the 2% DMSO negative control, and the percent of pathogen growth inhibition was determined based on those values.
# [1] = system: C. parapsilosis ATCC 22019; experiment: Anti-Fungal Activity Assay (broth microtiter MIC), C. parapsilosis; assay type: cell-based, Candida parapsilosis; conditions: Lodderomyces parapsilosis, ATCC22019, 48 h, 3 replicates; MIC recorded at 48 h; read-out: MIC C. parapsilosis ATCC 22019
# In short: as §1
# Septoria tritici (St) = experiment: Growth inhibition assay of fungal pathogens, St; assay type: cell-based; conditions: Zymoseptoria tritici; 48 hours; read-out: Concentration at 90% Inhibition, St
# Protocol: as §2
# [2] = system: Fusarium moniliforme (Fm); experiment: Growth inhibition assay of fungal pathogens, Fm; assay type: cell-based; conditions: Fusarium verticillioides; 48 hours; read-out: Concentration at 90% Inhibition, Fm
# Protocol: as §2
# Fungal ACC2 = Fungal ACC2 (UniProt Q00955); conditions: read-out: Fungal ACC2 (IC50, in vitro ACC2 inhibition)
# Botrtyis cinerea (Bc) = experiment: Growth inhibition assay of fungal pathogens, Bc; assay type: cell-based; conditions: 48 hours; read-out: Concentration at 90% Inhibition, Bc
# Protocol: as §2
# [3] = system: Blumeria graminis f sp. hordei; experiment: Foliar protection test, barley powdery mildew control; assay type: in vivo, Blumeria graminis f sp. hordei on Hordeum vulgare cv. Perry; conditions: 168 h, compound concentration 50 ppm, foliar spray, evaluated 7 days after inoculation, read-out: Barley Powdery Mildew Control at 50 ppm
# Protocol: Compounds of the present invention were evaluated in a foliar protection test to determine the ability to control barley powdery mildew. Plants (Hordeum vulgare cv. Perry) were grown for 6 days in 2-inch square pots containing Metromix 200 medium amended with fertilizer. For propagation, plants were maintained in a growth chamber at conditions of 20 to 21° C., 16 hour light cycle, 400 uM of light, 70% humidity, and with sub-irrigation as needed. After inoculation with the pathogen of Blumeria graminis f sp. hordei, plants were kept at conditions of 20 to 22° C., 70% relative humidity, and 200 uM of light to facilitate infection and disease development. At 6 days after planting (1st true leaf fully expanded), the test compounds were dissolved in a solution of 5% acetone and 0.005% Tween 80 surfactant. An atomizer was used for applying the solution onto both sides of the leaves until thoroughly wetted. The amount of the compound applied to the leaves was typically 200, 100, 50, 10, or 2 ppm, but it may vary. At 24 hours after treatment, the plants were moved to a cooler chamber and inoculated by shaking well-colonized, untreated stock plants above the treated plants. This allowed producing a settling cloud of spores and resulting in uniform infection. Efficacy was evaluated in 7 days later by examining leaves for colonization and growth of mildew. Table 5 lists the results of barley powdery mildew control at a compound concentration of 50 ppm or 10 ppm. Compounds having an activity designated as “AA” provided a compound having >85% control of barley powdery mildew; compounds having an activity designated as “A” provided a compound having from 70% to 84% control of barley powdery mildew; compounds having an activity designated as “B” provided a compound having from 50 to 69% control of barley powdery mildew; compounds having an activity designated as “C” provided a compound having from 25 to 49% control of barley powdery mildew; and compounds having an activity designated as “D” provided a compound having <25% control of barley powdery mildew.
# Human ACC2 = Human ACC2 (Homo sapiens, UniProt O00763); experiment: In vitro ACC2 inhibition assay (ADP-Glo), human ACC2; assay type: biochemical; conditions: 5 nM ACC2, 20 μM ATP, 20 μM acetyl-CoA
# [4] = system: Phytophthora capsici (Pc); experiment: Growth inhibition assay of fungal pathogens, Pc; assay type: cell-based; conditions: 48 hours, read-out: Concentration at 90% Inhibition, Pc
# Protocol: as §2
# [5] = compound concentration 10 ppm, foliar spray, evaluated 7 days after inoculation
# [6] = system: Fusarium virguliforme (Fv); experiment: Growth inhibition assay of fungal pathogens, Fv; assay type: cell-based; conditions: 48 hours, read-out: Concentration at 90% Inhibition, Fv
# Protocol: as §2
# Diplodia maydis (Dm) = experiment: Growth inhibition assay of fungal pathogens, Dm; assay type: cell-based; conditions: Stenocarpella maydis; 48 hours; read-out: Concentration at 90% Inhibition, Dm
# Protocol: as §2
# [7] = system: Collectotrichum graminicola (Cg); experiment: Growth inhibition assay of fungal pathogens, Cg; assay type: cell-based; conditions: 48 hours; read-out: Concentration at 90% Inhibition, Cg
# Protocol: as §2
# Human ACC2, sequence (O00763 whole entry): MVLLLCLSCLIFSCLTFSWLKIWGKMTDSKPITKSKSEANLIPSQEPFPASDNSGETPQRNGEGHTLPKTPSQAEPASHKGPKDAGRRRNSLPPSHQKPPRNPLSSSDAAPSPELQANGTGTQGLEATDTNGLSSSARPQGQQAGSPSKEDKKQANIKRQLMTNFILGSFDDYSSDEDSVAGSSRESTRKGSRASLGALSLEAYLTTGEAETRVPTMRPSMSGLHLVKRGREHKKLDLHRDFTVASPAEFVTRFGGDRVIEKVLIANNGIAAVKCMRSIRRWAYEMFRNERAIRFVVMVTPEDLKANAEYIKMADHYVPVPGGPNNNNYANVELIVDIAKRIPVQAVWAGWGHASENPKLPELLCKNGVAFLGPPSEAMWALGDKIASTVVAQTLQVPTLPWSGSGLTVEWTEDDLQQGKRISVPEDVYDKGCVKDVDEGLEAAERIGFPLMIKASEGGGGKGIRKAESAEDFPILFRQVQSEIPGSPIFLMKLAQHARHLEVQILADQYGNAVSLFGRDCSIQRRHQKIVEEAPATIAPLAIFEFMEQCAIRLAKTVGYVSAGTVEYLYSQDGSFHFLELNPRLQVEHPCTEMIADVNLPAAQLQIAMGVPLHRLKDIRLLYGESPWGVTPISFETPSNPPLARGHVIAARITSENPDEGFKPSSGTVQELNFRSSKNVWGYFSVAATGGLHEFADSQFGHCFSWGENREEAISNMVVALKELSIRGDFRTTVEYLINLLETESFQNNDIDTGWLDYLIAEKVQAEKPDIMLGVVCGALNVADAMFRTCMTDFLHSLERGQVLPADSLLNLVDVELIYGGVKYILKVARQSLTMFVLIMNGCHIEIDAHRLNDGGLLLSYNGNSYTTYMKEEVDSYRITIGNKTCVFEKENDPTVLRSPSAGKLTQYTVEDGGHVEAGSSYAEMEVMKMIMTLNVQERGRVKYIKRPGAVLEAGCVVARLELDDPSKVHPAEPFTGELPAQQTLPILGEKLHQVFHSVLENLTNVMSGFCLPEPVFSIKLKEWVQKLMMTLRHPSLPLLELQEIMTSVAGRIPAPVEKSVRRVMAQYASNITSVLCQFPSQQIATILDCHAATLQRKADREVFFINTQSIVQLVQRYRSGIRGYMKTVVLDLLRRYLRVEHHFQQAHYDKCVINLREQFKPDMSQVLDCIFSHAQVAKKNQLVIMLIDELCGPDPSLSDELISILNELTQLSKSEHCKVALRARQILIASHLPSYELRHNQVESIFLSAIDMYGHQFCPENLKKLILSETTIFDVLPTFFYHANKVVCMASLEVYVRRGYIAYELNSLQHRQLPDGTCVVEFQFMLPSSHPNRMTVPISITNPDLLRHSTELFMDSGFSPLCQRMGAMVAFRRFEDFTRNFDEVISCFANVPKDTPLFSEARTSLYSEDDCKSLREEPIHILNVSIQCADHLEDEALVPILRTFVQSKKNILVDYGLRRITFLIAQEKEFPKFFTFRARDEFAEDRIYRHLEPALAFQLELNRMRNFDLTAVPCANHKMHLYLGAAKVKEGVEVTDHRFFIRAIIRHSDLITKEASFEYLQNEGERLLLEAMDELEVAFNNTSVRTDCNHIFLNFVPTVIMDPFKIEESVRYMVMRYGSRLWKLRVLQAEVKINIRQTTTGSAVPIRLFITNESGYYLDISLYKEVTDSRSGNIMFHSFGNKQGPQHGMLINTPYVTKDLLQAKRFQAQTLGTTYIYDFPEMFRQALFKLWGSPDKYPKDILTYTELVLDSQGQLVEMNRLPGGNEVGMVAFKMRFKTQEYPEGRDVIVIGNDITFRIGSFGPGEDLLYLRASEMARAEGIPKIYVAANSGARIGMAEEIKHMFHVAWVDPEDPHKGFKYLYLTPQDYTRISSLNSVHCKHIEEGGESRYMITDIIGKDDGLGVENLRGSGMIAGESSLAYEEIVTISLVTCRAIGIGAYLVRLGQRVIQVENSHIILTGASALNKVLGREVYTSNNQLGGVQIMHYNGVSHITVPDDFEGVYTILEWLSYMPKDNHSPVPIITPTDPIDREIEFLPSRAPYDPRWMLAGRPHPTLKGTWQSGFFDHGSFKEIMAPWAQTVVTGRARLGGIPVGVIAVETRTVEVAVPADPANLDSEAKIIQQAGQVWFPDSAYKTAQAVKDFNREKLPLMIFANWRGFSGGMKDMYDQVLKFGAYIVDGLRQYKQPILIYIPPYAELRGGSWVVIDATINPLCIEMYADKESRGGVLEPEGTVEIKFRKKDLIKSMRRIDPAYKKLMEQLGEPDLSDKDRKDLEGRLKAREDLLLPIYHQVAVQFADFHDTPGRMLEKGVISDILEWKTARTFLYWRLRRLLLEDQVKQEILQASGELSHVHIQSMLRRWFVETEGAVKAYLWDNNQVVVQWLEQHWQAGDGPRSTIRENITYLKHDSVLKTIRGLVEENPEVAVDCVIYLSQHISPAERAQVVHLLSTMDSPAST
# Fungal ACC2, sequence (Q00955 whole entry): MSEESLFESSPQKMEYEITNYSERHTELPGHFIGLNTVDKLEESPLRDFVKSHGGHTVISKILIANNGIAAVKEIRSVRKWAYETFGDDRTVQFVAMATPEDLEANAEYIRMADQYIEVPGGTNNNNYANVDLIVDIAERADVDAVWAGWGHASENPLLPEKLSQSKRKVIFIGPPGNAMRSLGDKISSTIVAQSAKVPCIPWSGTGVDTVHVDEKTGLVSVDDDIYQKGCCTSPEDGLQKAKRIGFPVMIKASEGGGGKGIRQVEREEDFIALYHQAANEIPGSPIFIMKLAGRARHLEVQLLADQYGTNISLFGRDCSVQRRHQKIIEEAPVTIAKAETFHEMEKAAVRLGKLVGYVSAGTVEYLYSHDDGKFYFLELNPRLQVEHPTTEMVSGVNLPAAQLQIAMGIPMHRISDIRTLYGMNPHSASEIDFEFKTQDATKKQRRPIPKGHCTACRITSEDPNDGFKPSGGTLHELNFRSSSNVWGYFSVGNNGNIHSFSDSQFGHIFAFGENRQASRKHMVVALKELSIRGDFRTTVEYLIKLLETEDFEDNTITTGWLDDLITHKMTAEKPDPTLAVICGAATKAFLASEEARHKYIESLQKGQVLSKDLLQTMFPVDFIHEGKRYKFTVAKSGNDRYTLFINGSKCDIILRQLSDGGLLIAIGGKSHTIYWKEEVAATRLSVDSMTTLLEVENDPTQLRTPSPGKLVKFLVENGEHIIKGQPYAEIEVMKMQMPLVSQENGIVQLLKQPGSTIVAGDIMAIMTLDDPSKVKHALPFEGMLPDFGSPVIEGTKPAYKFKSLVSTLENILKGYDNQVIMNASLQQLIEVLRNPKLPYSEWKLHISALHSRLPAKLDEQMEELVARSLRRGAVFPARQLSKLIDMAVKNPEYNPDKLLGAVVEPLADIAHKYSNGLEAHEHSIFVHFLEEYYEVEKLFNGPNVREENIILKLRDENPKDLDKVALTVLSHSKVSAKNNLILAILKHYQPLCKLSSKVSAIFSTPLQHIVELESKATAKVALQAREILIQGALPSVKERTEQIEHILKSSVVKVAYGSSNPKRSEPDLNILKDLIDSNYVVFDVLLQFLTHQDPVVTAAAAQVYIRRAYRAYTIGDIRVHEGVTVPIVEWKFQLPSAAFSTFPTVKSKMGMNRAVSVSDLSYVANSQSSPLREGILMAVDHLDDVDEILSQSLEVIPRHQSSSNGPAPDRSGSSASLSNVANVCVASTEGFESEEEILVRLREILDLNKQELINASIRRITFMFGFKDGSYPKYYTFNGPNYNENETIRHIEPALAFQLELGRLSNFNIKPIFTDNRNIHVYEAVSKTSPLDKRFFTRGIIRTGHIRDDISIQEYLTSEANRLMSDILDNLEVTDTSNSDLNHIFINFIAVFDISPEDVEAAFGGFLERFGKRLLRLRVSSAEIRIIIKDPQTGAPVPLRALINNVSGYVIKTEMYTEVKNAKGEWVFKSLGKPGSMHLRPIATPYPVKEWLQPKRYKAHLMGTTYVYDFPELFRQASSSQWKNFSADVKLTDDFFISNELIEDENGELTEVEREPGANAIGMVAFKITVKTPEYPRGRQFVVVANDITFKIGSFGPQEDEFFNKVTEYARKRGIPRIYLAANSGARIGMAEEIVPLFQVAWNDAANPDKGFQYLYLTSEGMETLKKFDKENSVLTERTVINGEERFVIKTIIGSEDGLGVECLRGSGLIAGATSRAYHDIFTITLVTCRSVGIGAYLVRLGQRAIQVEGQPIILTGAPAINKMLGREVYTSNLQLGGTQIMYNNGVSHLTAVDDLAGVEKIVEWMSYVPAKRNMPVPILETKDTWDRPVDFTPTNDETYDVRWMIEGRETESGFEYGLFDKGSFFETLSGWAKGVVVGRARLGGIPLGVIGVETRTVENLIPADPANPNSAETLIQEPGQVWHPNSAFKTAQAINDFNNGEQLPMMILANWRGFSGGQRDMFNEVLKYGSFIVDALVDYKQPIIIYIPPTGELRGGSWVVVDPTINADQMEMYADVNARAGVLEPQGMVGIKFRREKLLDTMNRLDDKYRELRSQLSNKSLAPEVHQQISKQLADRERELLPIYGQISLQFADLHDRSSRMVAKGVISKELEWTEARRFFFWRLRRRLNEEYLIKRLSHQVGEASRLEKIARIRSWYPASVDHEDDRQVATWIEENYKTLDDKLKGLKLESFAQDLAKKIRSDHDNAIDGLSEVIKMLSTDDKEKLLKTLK
structure (smiles),measurement,setting,value
"COCCO[C@@H](Cn1c(=O)n([C@H]2CCN(C)C2=O)c(=O)c2c(C)c(-n3nccn3)sc21)c1cc(F)ccc1OC [Compound I-27, 1-((R)-2-(5-fluoro-2-methoxyphenyl)-2-(2-methoxy-ethoxy)ethyl)-5-methyl-3-((S)-1-methyl-2-oxopyrrolidin-3-yl)-6-(2H-1,2,3-triazol-2-yl)thieno[2,3-d]pyrimidine-2,4(1H,3H)-dione]",MIC,C. albicans ATCC 90028,2.1 to 4 µg/mL
same,MIC,C. krusei ATCC 6258,2.1 to 4 µg/mL
same,IC90,Rhizoctonia solani (Rs),> 50 µg/mL
same,MIC,[1],2.1 to 4 µg/mL
same,IC90,Septoria tritici (St),> 50 µg/mL
same,IC90,[2],2 µg/mL
same,IC50,Fungal ACC2,2 to 10 nM
same,IC90,Botrtyis cinerea (Bc),2 µg/mL
same,pest or weed control at 50 ppm,[3],50 to 69%
same,IC50,Human ACC2,10 to 100 nM
same,IC90,[4],> 50 µg/mL
same,Barley Powdery Mildew Control at 10 ppm,[5],D (provided a compound having <25% control of barley powdery mildew)
same,IC90,[6],10 µg/mL
same,IC90,Diplodia maydis (Dm),> 50 µg/mL
same,IC90,[7],> 50 µg/mL
"COCCO[C@@H](Cn1c(=O)n([C@H]2CCNC2=O)c(=O)c2c(C)c(-n3cccn3)sc21)c1cc(F)ccc1OC [Compound I-41, 1-((R)-2-(5-fluoro-2-methoxyphenyl)-2-(2-methoxy-ethoxy)ethyl)-5-methyl-3-((S)-2-oxopyrrolidin-3-yl)-6-(I H-pyrazol-1-yl)thieno[2,3-d]pyrimidine-2,4(1H,3H)-dione]",MIC,C. albicans ATCC 90028,2.1 to 4 µg/mL
same,MIC,C. krusei ATCC 6258,2.1 to 4 µg/mL
same,IC90,Rhizoctonia solani (Rs),> 50 µg/mL
same,MIC,[1],2.1 to 4 µg/mL
same,IC90,Septoria tritici (St),> 50 µg/mL
same,IC90,[2],> 50 µg/mL
same,IC50,Fungal ACC2,10 to 100 nM
same,IC90,Botrtyis cinerea (Bc),> 50 µg/mL
same,pest or weed control at 50 ppm,[3],25 to 49%
same,IC90,[4],> 50 µg/mL
same,Barley Powdery Mildew Control at 10 ppm,[5],D (provided a compound having <25% control of barley powdery mildew)
same,IC90,[6],> 50 µg/mL
same,IC90,Diplodia maydis (Dm),> 50 µg/mL
same,IC90,[7],> 50 µg/mL
"COCCO[C@@H](Cn1c(=O)n([C@H]2CCN(C)C2=O)c(=O)c2c(C)c(-n3cccn3)sc21)c1cc(F)ccc1OC [Compound I-43, 1-((R)-2-(5-fluoro-2-methoxyphenyl)-2-(2-methoxy-ethoxy)ethyl)-5-methyl-3-((S)-1-methyl-2-oxopyrrolidin-3-yl)-6-(1H-pyrazol-1-yl)thieno[2,3-d]pyrimidine-2,4(1H,3H)-dione]",MIC,C. albicans ATCC 90028,2.1 to 4 µg/mL
same,MIC,C. krusei ATCC 6258,2.1 to 4 µg/mL
same,IC90,Rhizoctonia solani (Rs),> 50 µg/mL
same,MIC,[1],2.1 to 4 µg/mL
same,IC90,Septoria tritici (St),> 50 µg/mL
same,IC90,[2],> 50 µg/mL
same,IC50,Fungal ACC2,10 to 100 nM
same,IC90,Botrtyis cinerea (Bc),> 50 µg/mL
same,pest or weed control at 50 ppm,[3],70 to 84%
same,IC90,[4],> 50 µg/mL
same,Barley Powdery Mildew Control at 10 ppm,[5],D (provided a compound having <25% control of barley powdery mildew)
same,IC90,[6],> 50 µg/mL
same,IC90,Diplodia maydis (Dm),> 50 µg/mL
same,IC90,[7],> 50 µg/mL
"COc1ccc(F)cc1[C@H](Cn1c(=O)n([C@@H]2CCNC2=O)c(=O)c2c(C)c(-n3nccn3)sc21)OCCO [Compound I-81, 1-((R)-2-(5-fluoro-2-methoxyphenyl)-2-(2-hydroxy-ethoxy)ethyl)-5-methyl-3-((R)-2-oxopyrrolidin-3-yl)-6-(2H-1,2,3-triazol-2-yl)thieno[2,3-d]pyrimidine-2,4(1H,3H)-dione]",IC90,Rhizoctonia solani (Rs),10 µg/mL
same,IC90,Septoria tritici (St),> 50 µg/mL
same,IC90,[2],2 µg/mL
same,IC50,Fungal ACC2,0.7 to 2 nM
same,IC90,Botrtyis cinerea (Bc),2 µg/mL
same,pest or weed control at 50 ppm,[3],25 to 49%
same,IC50,Human ACC2,2 to 10 nM
same,IC90,[4],10 µg/mL
same,Barley Powdery Mildew Control at 10 ppm,[5],D (provided a compound having <25% control of barley powdery mildew)
same,IC90,[6],2 µg/mL
same,IC90,Diplodia maydis (Dm),10 µg/mL
same,IC90,[7],10 µg/mL
"COc1ccc(F)cc1[C@H](Cn1c(=O)n([C@@H]2CCNC2=O)c(=O)c2c(C)c(-n3nccn3)sc21)OCCC#N [Compound I-107, 3-((R)-1-(5-fluoro-2-methoxyphenyl)-2-(5-methyl-2,4-dioxo-3-((R)-2-oxopyrrolidin-3-yl)-6-(2H-1,2,3-triazol-2-yl)-3,4-dihydrothieno[2,3-d]pyrimidin-1(2H)-yl)ethoxy)propanenitrile]",IC90,Rhizoctonia solani (Rs),2 µg/mL
same,IC90,Septoria tritici (St),> 50 µg/mL
same,IC90,[2],2 µg/mL
same,IC50,Fungal ACC2,0.7 to 2 nM
same,IC90,Botrtyis cinerea (Bc),2 µg/mL
same,pest or weed control at 50 ppm,[3],50 to 69%
same,IC50,Human ACC2,2 to 10 nM
same,IC90,[4],> 50 µg/mL
same,Barley Powdery Mildew Control at 10 ppm,[5],C (provided a compound having from 25 to 49% control of barley powdery mildew)
same,IC90,[6],2 µg/mL
same,IC90,Diplodia maydis (Dm),10 µg/mL
same,IC90,[7],10 µg/mL
"COc1ccc(F)cc1[C@H](Cn1c(=O)n([C@@H]2CCCNC2=O)c(=O)c2c(C)c(-n3nccn3)sc21)OCCC(=O)O [Compound I-178, 3-((R)-1-(5-fluoro-2-methoxyphenyl)-2-(5-methyl-2,4-dioxo-3-((R)-2-oxopiperidin-3-yl)-6-(2H-1,2,3-triazol-2-yl)-3,4-dihydrothieno[2,3-d]pyrimidin-1(2H)-yl)ethoxy)propanoic acid]",IC90,Rhizoctonia solani (Rs),2 µg/mL
same,IC90,Septoria tritici (St),> 50 µg/mL
same,IC90,[2],10 µg/mL
same,IC50,Fungal ACC2,0.7 to 2 nM
same,IC90,Botrtyis cinerea (Bc),> 50 µg/mL
same,pest or weed control at 50 ppm,[3],25 to 49%
same,IC50,Human ACC2,10 to 100 nM
same,IC90,[4],> 50 µg/mL
same,Barley Powdery Mildew Control at 10 ppm,[5],D (provided a compound having <25% control of barley powdery mildew)
same,IC90,[6],> 50 µg/mL
same,IC90,Diplodia maydis (Dm),> 50 µg/mL
same,IC90,[7],10 µg/mL
